Columns and labels:
[1] = solubility of Triclosan in PBS (remark in the method); format: physicochemical; conditions: PBS without ethanol
Experimental: (§1) Liposomes were prepared by the reverse phase evaporation procedure referred to above incorporating Triclosan in the lipid mixture. Some of the liposome samples were prepared with concanavalin A (ConA) conjugated to their surface. Details are as follows: (a) Derivatisation of ConA with SATA 2.5µl of a stock solution containing 9.08mg N-succinimidyl-S-acetyl thioacetate (SATA) in 50µl dimethylformamide was added to ConA solution (10mg in 2.5ml phosphate (50mM) - EDTA (1mM) buffer, pH7.5) at room temperature. After reaction (15min) the derivatised protein (s-ConA) was separated from unreacted SATA by gel filtration on a Sephadex G-50 column (15 x 2cm). The s-ConA was activated by deacetylation using, for each 2ml of protein solution, 200µl of 0.1M hydroxylamine solution, made up in 2.5mM EDTA with sufficient solid Na₂HPO₄ added to bring the pH to 7.5. […] The fractions collected were analysed for phospholipid and Triclosan by scintillation counting. Particle sizes of the liposomes were determined by photon correlation spectroscopy, following the method described in Hutchinson et al., Biochim. […] (e) Assessment of efficacy The antibacterial efficacy of Triclosan delivered in targeted liposomes was assessed using a bacterial regrowth assay. […]

Strep. sanguis (CR2b) = assay: bacterial regrowth assay (antibacterial efficacy of Triclosan delivered in targeted liposomes); format: cell-based
Experimental: as §1, with “7.5. (b) Preparatlon of DPPE-MBS 40mg L-α-dipalmitoylphosphatidylethanolamine (DPPE) was dissolved in a mixture of 16ml dry chloroform, 2ml dry methanol and 20mg dry triethylamine. 20mg maleimidobenzoyl-N-hydroxysuccinimide ester (MBS) was added and the reaction mixture was stirred under nitrogen at room temperature for 24h, after which the organic phase was washed three times with phosphate buffered saline (PBS, pH7.3) to remove unreacted MBS. The DPPE-MBS derivative was recovered from the organic phase by rotary evaporation and was stored in a chloroform/methanol mixture (9:1 v/v) at 4°C. (c) Preparation of liposomes 27mg dipalmitoylphosphatidylcholine (DPPC), 3mg phosphatidylinositol (PI, from wheat germ) and 3mg DPPE-MBS were dissolved in 9ml chloroform/methanol mixture (4:1 v/v).” for “7.5.”

Oc1cc(Cl)ccc1Oc1ccc(Cl)cc1Cl [Triclosan in solution, 2,4,4'-trichloro-2'-hydroxy diphenyl ether]
solubility in PBS alone [1]: virtually insoluble | % inhibition of growth incubated with saliva (Strep. sanguis (CR2b); 1min exposure, PBS plus human saliva (1:1), 5µg Triclosan in 100µl PBS with 10% ethanol): 3% | % inhibition of growth without saliva (Strep. sanguis (CR2b); 1min exposure, PBS, no saliva, 5µg Triclosan in 100µl PBS with 10% ethanol): 8% | % inhibition of growth (Strep. sanguis (CR2b); relative to PBS alone, 2h exposure at 37°C, regrowth 18h, optical density at 630nm, PBS containing 10% ethanol, total Triclosan 10µg (free, liposomes with ConA) or 20µg (liposomes without ConA) in 100µl): 75%

— patent publication EP0481701B1, “Treatment composition” (priority 1990, dated 1992)
